Values joined by “and” are separate entries in the source; they are usually repeats but may differ in a detail not shown here. Equal entries are not always repeated. Toxic doses and inconclusive results are not listed. Rule as the data show it: active = T/C of 150% or more; inactive = T/C below 125%.
Tested on: L1210 leukemia ip in BDF1 mice, survival T/C
Test: NCI In Vivo Anticancer Drug Screen. Data for tumor model L1210 Leukemia (intraperitoneal) in B6D2F1 (BDF1) mice
Conditions: higher = longer survival
Outline: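 Read-out is survival time, reported as the treated-group measurement over the vehicle-control measurement.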

[1] = endpoint: mean survival time, dose: 50.0 mg/kg/injection, schedule: Q01DX001 (ip), vehicle: carboxymethylcellulose (CMC)
[2] = endpoint: mean survival time, dose: 100.0 mg/kg/injection, schedule: Q01DX001 (ip), vehicle: carboxymethylcellulose (CMC)
[3] = endpoint: mean survival time, dose: 200.0 mg/kg/injection, schedule: Q01DX001 (ip), vehicle: carboxymethylcellulose (CMC)
[4] = endpoint: mean survival time, dose: 400.0 mg/kg/injection, schedule: Q01DX001 (ip), vehicle: carboxymethylcellulose (CMC)
[5] = endpoint: mean survival time, dose: 100.0 mg/kg/injection, schedule: Q01DX001 (ip), vehicle: saline
[6] = endpoint: mean survival time, dose: 200.0 mg/kg/injection, schedule: Q01DX001 (ip), vehicle: saline
[7] = endpoint: mean survival time, dose: 400.0 mg/kg/injection, schedule: Q01DX001 (ip), vehicle: saline

Measured: T/C

COC(=O)C[C@](O)(CCC(C)(C)O)C(=O)O[C@@H]1C(OC)=C[C@]23CCCN2CCc2cc4c(cc2[C@H]13)OCO4
inactive: endpoint: mean survival time, dose: 0.13 mg/kg/injection, schedule: Q#A X018 (ip), vehicle: saline 116 % of control | endpoint: mean survival time, dose: 0.25 mg/kg/injection, schedule: Q01DX009 (ip), vehicle: saline 104 % of control and 117 % of control and 124 % of control | endpoint: mean survival time, dose: 0.25 mg/kg/injection, schedule: Q01DX009 (ip), vehicle: water 118 % of control | endpoint: mean survival time, dose: 0.25 mg/kg/injection, schedule: Q03HX008 (ip), vehicle: saline 109 % of control | endpoint: mean survival time, dose: 0.25 mg/kg/injection, schedule: Q03HX016 (ip), vehicle: saline 113 % of control | endpoint: mean survival time, dose: 0.25 mg/kg/injection, schedule: Q03HX024 (ip), vehicle: saline 118 % of control | endpoint: mean survival time, dose: 0.25 mg/kg/injection, schedule: Q#A X018 (ip), vehicle: saline 114 % of control | endpoint: mean survival time, dose: 0.5 mg/kg/injection, schedule: Q01DX009 (oral), vehicle: saline 105 % of control | endpoint: mean survival time, dose: 0.5 mg/kg/injection, schedule: Q01DX009 (sc), vehicle: saline 110 % of control | endpoint: mean survival time, dose: 0.5 mg/kg/injection, schedule: Q03HX008 (ip), vehicle: saline 116 % of control | endpoint: mean survival time, dose: 0.5 mg/kg/injection, schedule: Q03HX016 (ip), vehicle: saline 107 % of control | endpoint: mean survival time, dose: 0.5 mg/kg/injection, schedule: Q03HX024 (ip), vehicle: saline 119 % of control | endpoint: mean survival time, dose: 0.5 mg/kg/injection, schedule: Q#A X018 (ip), vehicle: saline 122 % of control | endpoint: mean survival time, dose: 1.0 mg/kg/injection, schedule: Q01DX009 (oral), vehicle: saline 111 % of control | endpoint: mean survival time, dose: 1.0 mg/kg/injection, schedule: Q01DX009 (sc), vehicle: saline 121 % of control | endpoint: mean survival time, dose: 1.0 mg/kg/injection, schedule: Q03HX008 (ip), vehicle: saline 124 % of control | endpoint: mean survival time, dose: 2.0 mg/kg/injection, schedule: Q01DX001 (ip), vehicle: saline 113 % of control | endpoint: mean survival time, dose: 2.0 mg/kg/injection, schedule: Q01DX009 (oral), vehicle: saline 112 % of control | endpoint: mean survival time, dose: 2.0 mg/kg/injection, schedule: Q04DX003 (ip), vehicle: saline 105 % of control | endpoint: mean survival time, dose: 2.0 mg/kg/injection, schedule: Q08DX002 (ip), vehicle: saline 101 % of control | endpoint: mean survival time, dose: 2.0 mg/kg/injection, schedule: Q#A X018 (ip), vehicle: saline 113 % of control | endpoint: mean survival time, dose: 4.0 mg/kg/injection, schedule: Q01DX001 (ip), vehicle: saline 110 % of control | endpoint: mean survival time, dose: 4.0 mg/kg/injection, schedule: Q01DX009 (ip), vehicle: saline 119 % of control and 124 % of control | endpoint: mean survival time, dose: 4.0 mg/kg/injection, schedule: Q01DX009 (oral), vehicle: saline 98 % of control | endpoint: mean survival time, dose: 4.0 mg/kg/injection, schedule: Q01DX009 (sc), vehicle: saline 92 % of control | endpoint: mean survival time, dose: 4.0 mg/kg/injection, schedule: Q04DX003 (ip), vehicle: saline 123 % of control | endpoint: mean survival time, dose: 4.0 mg/kg/injection, schedule: Q08DX002 (ip), vehicle: saline 107 % of control | endpoint: mean survival time, dose: 8.0 mg/kg/injection, schedule: Q01DX001 (ip), vehicle: saline 117 % of control | endpoint: mean survival time, dose: 8.0 mg/kg/injection, schedule: Q04DX003 (ip), vehicle: saline 87 % of control | endpoint: mean survival time, dose: 8.0 mg/kg/injection, schedule: Q08DX002 (ip), vehicle: saline 107 % of control | endpoint: mean survival time, dose: 16.0 mg/kg/injection, schedule: Q08DX002 (ip), vehicle: saline 98 % of control | endpoint: median survival time, dose: 0.25 mg/kg/injection, schedule: Q01DX009 (ip), vehicle: saline 100 % of control and 101 % of control | endpoint: median survival time, dose: 0.5 mg/kg/injection, schedule: Q01DX009 (ip), vehicle: saline 105 % of control and 107 % of control | endpoint: median survival time, dose: 1.0 mg/kg/injection, schedule: Q01DX009 (ip), vehicle: saline 110 % of control and 115 % of control

Clc1ccc(/C=N/c2snc3ccccc23)c(Cl)c1
inactive: endpoint: mean survival time, dose: 100.0 mg/kg/injection, schedule: Q04DX002 (ip), vehicle: Klucel (hydroxypropylcellulose) (HPC) 95 % of control | endpoint: mean survival time, dose: 200.0 mg/kg/injection, schedule: Q04DX002 (ip), vehicle: Klucel (hydroxypropylcellulose) (HPC) 88 % of control | endpoint: mean survival time, dose: 400.0 mg/kg/injection, schedule: Q04DX002 (ip), vehicle: Klucel (hydroxypropylcellulose) (HPC) 92 % of control

Cn1c(N)c(C=O)c(=O)n(C)c1=O
inactive: endpoint: mean survival time, dose: 12.5 mg/kg/injection, schedule: Q04DX003 (ip), vehicle: Klucel (hydroxypropylcellulose) (HPC) 95 % of control | endpoint: mean survival time, dose: 25.0 mg/kg/injection, schedule: Q04DX003 (ip), vehicle: Klucel (hydroxypropylcellulose) (HPC) 105 % of control | endpoint: mean survival time, dose: 50.0 mg/kg/injection, schedule: Q04DX003 (ip), vehicle: Klucel (hydroxypropylcellulose) (HPC) 96 % of control

O=c1[nH]cc(O)c(=O)[nH]1
inactive: [1] 100 % of control | endpoint: mean survival time, dose: 62.5 mg/kg/injection, schedule: Q#A X018 (ip), vehicle: saline 98 % of control | [2] 102 % of control | endpoint: mean survival time, dose: 125.0 mg/kg/injection, schedule: Q#A X018 (ip), vehicle: saline 104 % of control | endpoint: mean survival time, dose: 176.0 mg/kg/injection, schedule: Q01DX Z (ip), vehicle: carboxymethylcellulose (CMC) 107 % of control | [3] 107 % of control | endpoint: mean survival time, dose: 250.0 mg/kg/injection, schedule: Q#A X018 (ip), vehicle: saline 115 % of control | endpoint: mean survival time, dose: 267.0 mg/kg/injection, schedule: Q01DX015 (ip), vehicle: saline 115 % of control | endpoint: mean survival time, dose: 267.0 mg/kg/injection, schedule: Q01DX Z (ip), vehicle: carboxymethylcellulose (CMC) 120 % of control | [4] 100 % of control | endpoint: mean survival time, dose: 400.0 mg/kg/injection, schedule: Q01DX015 (ip), vehicle: saline 120 % of control | endpoint: mean survival time, dose: 600.0 mg/kg/injection, schedule: Q01DX015 (ip), vehicle: saline 119 % of control

CNNC(=O)C(O)C(C)(C)CO (configuration not stated)
inactive: [5] 100 % of control | [6] 100 % of control | [7] 102 % of control

CC(=O)c1ccc2c(c1)sc1cc(C(C)=O)ccc12
inactive: [1] 96 % of control | [2] 100 % of control | [3] 90 % of control | [4] 90 % of control

O=C(Nc1ncn[nH]1)C(F)(F)F
inactive: [5] 103 % of control | [6] 103 % of control | [7] 92 % of control

CC(=O)c1ccccc1O.CO.CO.[Cl][Nb][Cl]
inactive: endpoint: mean survival time, dose: 75.0 mg/kg/injection, schedule: Q01DX001 (ip), vehicle: saline 93 % of control | endpoint: mean survival time, dose: 150.0 mg/kg/injection, schedule: Q01DX001 (ip), vehicle: saline 90 % of control | endpoint: mean survival time, dose: 300.0 mg/kg/injection, schedule: Q01DX001 (ip), vehicle: saline 90 % of control

CCCCC(CSC#N)SC#N (configuration not stated)
inactive: endpoint: mean survival time, dose: 3.13 mg/kg/injection, schedule: Q01DX009 (ip), vehicle: saline with Tween-80 94 % of control | endpoint: mean survival time, dose: 6.25 mg/kg/injection, schedule: Q01DX009 (ip), vehicle: saline with Tween-80 94 % of control | endpoint: mean survival time, dose: 12.5 mg/kg/injection, schedule: Q01DX009 (ip), vehicle: saline with Tween-80 94 % of control

c1ccc(OC2COC(Oc3ccccc3)CO2)cc1 (configuration not stated)
inactive: [5] 97 % of control | endpoint: mean survival time, dose: 100.0 mg/kg/injection, schedule: Q01DX009 (ip), vehicle: acetone 97 % of control | endpoint: mean survival time, dose: 100.0 mg/kg/injection, schedule: Q04DX003 (ip), vehicle: saline 103 % of control | [6] 87 % of control | endpoint: mean survival time, dose: 200.0 mg/kg/injection, schedule: Q01DX009 (ip), vehicle: acetone 92 % of control | endpoint: mean survival time, dose: 200.0 mg/kg/injection, schedule: Q04DX003 (ip), vehicle: saline 97 % of control | [7] 90 % of control | endpoint: mean survival time, dose: 400.0 mg/kg/injection, schedule: Q01DX009 (ip), vehicle: acetone 87 % of control | endpoint: mean survival time, dose: 400.0 mg/kg/injection, schedule: Q04DX003 (ip), vehicle: saline 95 % of control

— PubChem BioAssay AID248 (DTP/NCI, 2004)
